Test system: healthy subjects
Assay: CANTAB Paired Associates Learning (PALTEA)
Format: in vivo, human
Settings: Day 28
Source text: In some embodiments, the Paired Associates Learning (PAL) test is utilized to evaluate safety and/or efficacy of psilocybin. The PAL task is a measure of visuo-spatial memory in which study subjects are required to remember locations at which visual stimuli are located. […] One or more of them will contain a pattern. […] If the subject makes an error, the boxes are opened in sequence again to remind the subject of the locations of the patterns. Increased difficulty levels can be used to test high-functioning, healthy individuals. The primary metric for this test is the number of errors made. This test takes approximately 8 min to complete. […]
The following list of outcome measures are non-exhaustive. • a. The short-term change from Baseline (Day −1 [Visit 2]) to Day 7 (Visit 5) in cognitive measures of attention, spatial and working memory and executive function was measured by a composite score of the CANTAB Panel (Spatial Working Memory [SWM], Rapid Visual Information Processing [RVP], Paired Associates Learning [PAL]). • b. The short-term change from Baseline (Day −1 [Visit 2]) to Day 7 (Visit 5) in Social Cognition Panel scales (Pictorial Empathy Test [PET], Reading the Mind in the Eyes Test [RMET], Toronto Empathy Questionnaire [TEQ], Social Value Orientation [SVO], Scale of Social Responsibility [SSR]). • c. […]

Compound: CN(C)CCc1c[nH]c2cccc(OP(=O)(O)O)c12 [Psilocybin, psilocybin]
- PALTEA improvement compared to placebo (LS mean difference from placebo) (10 mg): ~2 point
- PALTEA improvement compared to placebo (LS mean difference from placebo) (25 mg): ~2 point
